Results as given in patent US6344350B1, “Method for degradation of pinenes by bacillus isolates” (priority 1997, dated 2002).

What was measured:
pinene hydroxylase = assay: Pinene hydroxylase activity in crude cell extracts; format: biochemical, Bacillus BR424; settings: for pinene hydroxylase activity with cofactor: NADPH and NADH in place of FAD and potassium ferricyanide
Bacillus isolate BR425 = assay: Growth of BR425 on monoterpenes as carbon source (CFU); format: cell-based; settings: for growth in media containing the monoterpene as the carbon source: BR425; for optimal concentration for growth: BR425, M9 salts, monoterpene as carbon source, 50° C.
Experimental: For examination of growth rates on various substrates and metabolite production, BR425 was grown in 100 ml serum bottles containing 40 ml M9 salts and various concentrations of either α-pinene, β-pinene, limonene, carveol, carvone, or pinocarveol as the carbon source. The bottles were sealed with TEFLON-coated stoppers and aluminum caps (TEFLON is a trademark owned by E. I. du Pont and Nemours, Wilmington, Del.). Then the bottles were incubated in a water bath gyrorotatory shaker at 50° C. Growth of BR425 was assayed after incubations of 24, 48, and 72 hours as number of colony forming units (CFU).

BR424 = assay: Growth of BR424 on monoterpenes; format: cell-based, Bacillus isolate BR424

Compound | growth in media containing the monoterpene as the carbon source (Bacillus isolate BR425) | optimal concentration for growth (Bacillus isolate BR425) | other results
Cc1cc2nc3c(=O)[nH]c(=O)nc-3n(C[C@H](O)[C@H](O)[C@H](O)COP(=O)(O)OP(=O)(O)OC[C@H]3O[C@@H](n4cnc5c(N)ncnc54)[C@H](O)[C@@H]3O)c2cc1C [FAD, Flavin Adenine Dinucleotide] | – | – | Enzyme activity (pinene hydroxylase; addition 0.1 mM FAD): 0.04 U/ml; Enzyme activity (pinene hydroxylase; addition 1 mM FAD): 0.47 U/ml
NC(=O)C1=CN([C@@H]2O[C@H](COP(=O)(O)OP(=O)(O)OC[C@H]3O[C@@H](n4cnc5c(N)ncnc54)[C@H](O)[C@@H]3O)[C@@H](O)[C@H]2O)C=CC1 [NADH] | – | – | pinene hydroxylase activity with cofactor (pinene hydroxylase): No pinene hydroxylase activity was detected
NC(=O)C1=CN([C@@H]2O[C@H](COP(=O)(O)OP(=O)(O)OC[C@H]3O[C@@H](n4cnc5c(N)ncnc54)[C@H](OP(=O)(O)O)[C@@H]3O)[C@@H](O)[C@H]2O)C=CC1 [NADPH] | – | – | pinene hydroxylase activity with cofactor (pinene hydroxylase): No pinene hydroxylase activity was detected
C=C(C)C1CC=C(C)[C@@H](O)C1 (stereo partly drawn) [carveol] | shown to grow | 0.05% | –
C=C(C)C1CC=C(C)C(=O)C1 (stereo not drawn) [carvone] | shown to grow | 0.01% | –
C=C(C)[C@H]1CC=C(C)CC1 [limonene] | shown to grow | – | growth in media containing the monoterpene (BR424): did not appear to be able to grow
CC1(C)C2CC=C(CO)C1C2 (stereo not drawn) [myrtenol] | did not appear to grow | – | –
CC1(C)C2CC3OC3(C)C1C2 (stereo not drawn) [pinene epoxide] | did not appear to grow | – | –
CC1=CCC2CC1C2(C)C (stereo not drawn) [α-pinene] | – | 0.2% | growth in media containing the monoterpene (BR424): can grow
C=C1CCC2CC1C2(C)C (stereo not drawn) [β-pinene] | shown to grow | 0.2% | growth in media containing the monoterpene (BR424): can grow
myrtenal | did not appear to grow | – | –
